We go through 22 molecules from patent US20210009542A1 (Calico Life Sciences LLC, priority 2018, published 2021).

The term IC50 denotes the concentration needed to halve the response being measured.

Assay [1] addresses T1, His tagged PTPN2 (TC45) protein (Homo sapiens, UniProt P17706).
T1 construct: made in house
T1 sequence (P17706 with tags, fused parts or gaps isoform P17706-2): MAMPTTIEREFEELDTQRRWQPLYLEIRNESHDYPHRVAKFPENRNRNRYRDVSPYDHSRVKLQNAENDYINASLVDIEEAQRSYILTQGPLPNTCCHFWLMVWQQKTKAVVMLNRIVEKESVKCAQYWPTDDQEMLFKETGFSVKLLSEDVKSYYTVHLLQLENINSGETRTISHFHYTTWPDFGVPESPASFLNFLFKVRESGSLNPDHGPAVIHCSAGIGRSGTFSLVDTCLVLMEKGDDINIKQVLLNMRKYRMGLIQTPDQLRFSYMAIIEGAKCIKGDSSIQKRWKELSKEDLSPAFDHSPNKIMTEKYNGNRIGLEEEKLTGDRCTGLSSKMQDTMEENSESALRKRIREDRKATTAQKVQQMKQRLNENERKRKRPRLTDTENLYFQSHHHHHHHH
Kind of assay: Mobility shift assay (MSA) for potency of PTPN2 inhibitors. To be noted: read-out: PTPN2 MSA IC50. The class given is biochemical. Summed up: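 IC50 values were derived from % inhibition of substrate conversion, measured by microfluidic mobility shift (ex 488/em 530) after quenching. The fluorescent phosphotyrosine insulin-receptor peptide ([…]) reacted for 10 min at room temperature with 0.5 nM His-tagged TC45 PTPN2 that had been preincubated 10 min with compound (12 points, 1:3). Buffer was HEPES pH 7.5 with EGTA, EDTA, Tween 20 and DTT.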

Assay [2] relates to B16F10 mouse melanoma cells. Kind of assay: B16F10 IFNγ-induced cellular growth inhibition assay. The settings on record: Mus musculus, B16-F10, 33 μM compound. The class given is cell-based. Summed up: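 Live-cell imaging of confluence every 6 h over 5 days at 37 °C tracked growth of mouse B16F10 melanoma cells seeded overnight at 500/well. Semi-log compound series (final 100–0.001 μM, 0.1% DMSO) ran in both arms, ±IFNγ at 0.5 ng/mL final; inhibition taken relative to DMSO plus IFNγ when IFNγ-free DMSO wells passed 95% confluence.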

Where [3] appears, read: +0.5 ng/mL IFNγ, relative to DMSO control, read-out: % B16F10 growth inhibition (+0.5 ng/mL IFNγ) @ 33 μM.
[4] abbreviates: no IFNγ, read-out: % B16F10 growth inhibition (no IFNγ) @ 33 μM.

Read-outs that look alike come from different tables or passages of the source.

Turning to `O=C1CN(c2c(O)cc3ccc(/C=C/C4CC4)cc3c2F)S(=O)(=O)N1` [Compound 239, 5-{7-[(E)-2-cyclopropylethenyl]-1-fluoro-3-hydroxynaphthalen-2-yl}-1λ^6,2,5-thiadiazolidine-1,1,3-trione], the IC50 in assay [1] was 1 to 10 nM. In addition, the inhibition at 33 µM is 60 to 90% in assay [2] (setting [3]) and less than 25% in assay [2] (setting [4]).
For `CC(C)C/C=C/c1ccc2cc(O)c(N3CC(=O)NS3(=O)=O)c(F)c2c1` [Compound 240, 5-{1-fluoro-3-hydroxy-7-[(1E)-4-methylpent-1-en-1-yl]naphthalen-2-yl}-1λ^6,2,5-thiadiazolidine-1,1,3-trione], the IC50 in assay [1] lay within 1 to 10 nM. For the same molecule, the inhibition at 33 µM in assay [2] (setting [3]) was 25 to 59%; in assay [2] (setting [4]), less than 25%.
For `O=C1CN(c2c(O)cc3ccc(C4=CCN(CC5CC5)C4)cc3c2F)S(=O)(=O)N1` [Compound 242, 5-{7-[1-(cyclopropylmethyl)-2,5-dihydro-1H-pyrrol-3-yl]-1-fluoro-3-hydroxynaphthalen-2-yl}-1λ^6,2,5-thiadiazolidine-1,1,3-trione] the same measures were 1 to 10 nM, 60 to 90% and less than 25%.
For `COc1ccc2c(Br)c(O)c(N3CC(=O)NS3(=O)=O)c(F)c2c1` [Compound 243, 5-(4-bromo-1-fluoro-3-hydroxy-7-methoxynaphthalen-2-yl)-1λ^6,2,5-thiadiazolidine-1,1,3-trione], in assay [1], the IC50 was in the range of 10 to 100 nM. Besides, the inhibition at 33 µM is 25 to 59% in assay [2] (setting [3]) and less than 25% in assay [2] (setting [4]).
For `COC/C=C/c1ccc2cc(O)c(N3CC(=O)NS3(=O)=O)c(F)c2c1` [Compound 245, 5-{1-fluoro-3-hydroxy-7-[(1E)-3-methoxyprop-1-en-1-yl]naphthalen-2-yl}-1λ^6,2,5-thiadiazolidine-1,1,3-trione] the same measures were 1 to 10 nM, 60 to 90% and less than 25%.
Taken in the same sequence, the figures for `CCOCCOc1ccc2cc(O)c(N3CC(=O)NS3(=O)=O)c(F)c2c1` [Compound 246, 5-[7-(2-ethoxyethoxy)-1-fluoro-3-hydroxynaphthalen-2-yl]-1λ^6,2,5-thiadiazolidine-1,1,3-trione] were 1 to 10 nM, 60 to 90% and less than 25%.
Regarding `COCCCOc1ccc2cc(O)c(N3CC(=O)NS3(=O)=O)c(F)c2c1` [Compound 247, 5-[1-fluoro-3-hydroxy-7-(3-methoxypropoxy)naphthalen-2-yl]-1λ^6,2,5-thiadiazolidine-1,1,3-trione], the IC50 in assay [1] was in the range of 1 to 10 nM. The inhibition at 33 µM was 60 to 90% in assay [2] (setting [3]) and less than 25% in assay [2] (setting [4]).
With `O=C1CN(c2c(O)cc3ccc(C4CCS(=O)(=O)CC4)cc3c2F)S(=O)(=O)N1` [Compound 248, 5-[7-(1,1-dioxo-1λ^6-thian-4-yl)-1-fluoro-3-hydroxynaphthalen-2-yl]-1λ^6,2,5-thiadiazolidine-1,1,3-trione], the IC50 in assay [1] lay in the range of 1 to 10 nM. Besides, the inhibition at 33 µM in assay [2] (setting [3]) is 60 to 90%; in assay [2] (setting [4]) it was less than 25%.
`O=C1CN(c2c(O)cc3ccc(OCC4CC4)cc3c2F)S(=O)(=O)N1` [Compound 250, 5-[7-(cyclopropylmethoxy)-1-fluoro-3-hydroxynaphthalen-2-yl]-1λ^6,2,5-thiadiazolidine-1,1,3-trione]: in assay [1], the IC50 was 1 to 10 nM. Also, the results for the inhibition at 33 µM in assay [2] (setting [3]) and in assay [2] (setting [4]) were 60 to 90% and less than 25%, respectively.
Regarding `O=C1CN(c2c(O)cc3ccc(CC4CCN(CC(F)(F)F)CC4)cc3c2F)S(=O)(=O)N1` [Compound 252, 5-(1-fluoro-3-hydroxy-7-{[1-(2,2,2-trifluoroethyl)piperidin-4-yl]methyl}naphthalen-2-yl)-1λ^6,2,5-thiadiazolidine-1,1,3-trione], the IC50 in assay [1] lay in the range of 1 to 10 nM. Moreover, the inhibition at 33 µM was 25 to 59% in assay [2] (setting [3]) and less than 25% in assay [2] (setting [4]).
Taken in the same sequence, the figures for `O=C1CN(c2c(O)cc3ccc(CC4CN(S(=O)(=O)C5CC5)C4)cc3c2F)S(=O)(=O)N1` [Compound 256, 5-(7-{[1-(cyclopropanesulfonyl)azetidin-3-yl]methyl}-1-fluoro-3-hydroxynaphthalen-2-yl)-1λ^6,2,5-thiadiazolidine-1,1,3-trione] were less than 1 nM, 25 to 59% and less than 25%.
Taken in the same sequence, the figures for `O=C1CN(c2c(O)cc3ccc(C4=CCOCC4)cc3c2F)S(=O)(=O)N1` [Compound 264, 5-[7-(3,6-dihydro-2H-pyran-4-yl)-1-fluoro-3-hydroxynaphthalen-2-yl]-1λ^6,2,5-thiadiazolidine-1,1,3-trione] were 1 to 10 nM, 60 to 90% and less than 25%.
Taken in the same sequence, the figures for `O=C1CN(c2c(O)cc3ccc(OCC4CCOCC4)cc3c2F)S(=O)(=O)N1` [Compound 273, 5-{1-fluoro-3-hydroxy-7-[(oxan-4-yl)methoxy]naphthalen-2-yl}-1λ^6,2,5-thiadiazolidine-1,1,3-trione] were 1 to 10 nM, 60 to 90% and less than 25%.
Turning to `O=C1CN(c2c(O)cc3ccc(OC4COC4)cc3c2F)S(=O)(=O)N1` [Compound 274, 5-{1-fluoro-3-hydroxy-7-[(oxetan-3-yl)oxy]naphthalen-2-yl}-1λ^6,2,5-thiadiazolidine-1,1,3-trione], in assay [1], the IC50 is 1 to 10 nM. Moreover, the inhibition at 33 µM was 60 to 90% in assay [2] (setting [3]) and less than 25% in assay [2] (setting [4]).
Taken in the same sequence, the figures for `O=C1CN(c2c(O)cc3ccc(O)cc3c2F)S(=O)(=O)N1` [Compound 276, 5-(1-fluoro-3,7-dihydroxynaphthalen-2-yl)-1λ^6,2,5-thiadiazolidine-1,1,3-trione] were 1 to 10 nM, 25 to 59% and less than 25%.
For `O=C1CN(c2c(O)cc3ccc(OCCO)cc3c2F)S(=O)(=O)N1` [Compound 277, 5-[1-fluoro-3-hydroxy-7-(2-hydroxyethoxy)naphthalen-2-yl]-1λ^6,2,5-thiadiazolidine-1,1,3-trione] the same measures were 1 to 10 nM, 60 to 90% and less than 25%.
For `CCCOc1ccc2cc(O)c(N3CC(=O)NS3(=O)=O)c(F)c2c1` [Compound 278, 5-(1-fluoro-3-hydroxy-7-propoxynaphthalen-2-yl)-1λ^6,2,5-thiadiazolidine-1,1,3-trione] the same measures were 1 to 10 nM, 60 to 90% and less than 25%.
As to `CC(C)Oc1ccc2cc(O)c(N3CC(=O)NS3(=O)=O)c(F)c2c1` [Compound 279, 5-{1-fluoro-3-hydroxy-7-[(propan-2-yl)oxy]naphthalen-2-yl}-1λ^6,2,5-thiadiazolidine-1,1,3-trione], the IC50 in assay [1] was 1 to 10 nM. In addition, the inhibition at 33 µM is 60 to 90% in assay [2] (setting [3]) and less than 25% in assay [2] (setting [4]).
For `O=C(COc1ccc2cc(O)c(N3CC(=O)NS3(=O)=O)c(F)c2c1)NCCC1CC1` [Compound 281, N-(2-cyclopropylethyl)-2-{[8-fluoro-6-hydroxy-7-(1,1,4-trioxo-1λ^6,2,5-thiadiazolidin-2-yl)naphthalen-2-yl]oxy}acetamide] the same measures were 1 to 10 nM, 25 to 59% and less than 25%.
As for `CCN(CC)C(=O)COc1ccc2cc(O)c(N3CC(=O)NS3(=O)=O)c(F)c2c1` [Compound 282, N,N-diethyl-2-{[8-fluoro-6-hydroxy-7-(1,1,4-trioxo-1λ^6,2,5-thiadiazolidin-2-yl)naphthalen-2-yl]oxy}acetamide], the IC50 in assay [1] lay in the range of 1 to 10 nM. The inhibition at 33 µM in assay [2] (setting [3]) was 25 to 59%; in assay [2] (setting [4]), less than 25%.
As for `O=C1CN(c2c(O)cc3ccc(OCC(=O)N4CCCC4)cc3c2F)S(=O)(=O)N1` [Compound 283, 5-{1-fluoro-3-hydroxy-7-[2-oxo-2-(pyrrolidin-1-yl)ethoxy]naphthalen-2-yl}-1λ^6,2,5-thiadiazolidine-1,1,3-trione], the IC50 in assay [1] lay within 1 to 10 nM. Also, the results for the inhibition at 33 µM in assay [2] (setting [3]) and in assay [2] (setting [4]) were 25 to 59% and less than 25%, respectively.
For `CCS(=O)(=O)N1CC=C(c2ccc3cc(O)c(N4CC(=O)NS4(=O)=O)c(F)c3c2)C1` [Compound 295, 5-{7-[1-(ethanesulfonyl)-2,5-dihydro-1H-pyrrol-3-yl]-1-fluoro-3-hydroxynaphthalen-2-yl}-1λ^6,2,5-thiadiazolidine-1,1,3-trione] the same measures were less than 1 nM, more than 90% and less than 25%.
